Results from patent US10596270B2, “Anti-folate receptor antibody conjugates, compositions comprising anti-folate receptor antibody conjugates, and methods of making and using anti-folate receptor antibody conjugates” (Sutro Biopharma, Inc., priority 2017, dated 2020).
Positions count from the first letter of the chain named. Where two headings read alike, the source gives them in different places. Square brackets hold non-standard residues; d marks the D form. Peptide text beside a SMILES is read from it. * marks the point of attachment. Dolaproine = CO[C@@H]([C@@H]1CCCN1)[C@@H](C)C(=O)O; Dil = CC[C@H](C)[C@H](NC)[C@@H](CC(=O)O)OC; X1 = C[C@@H](N*)[C@@H](O)c1ccccc1; NMeV = CN[C@H](C(=O)O)C(C)C

Legend:
MES-SA cells = assay: Free drug cell killing on parental MES-SA cells; assay type: cell-based; conditions: MEA-SA (parental) cells, No GF120918
Text: (§1) To evaluate if free drug (I) is specifically a substrate of P-glycoprotein (PgP), which is responsible for cisplatin-resistance in some of the ovarian cancer cell lines (Stordal et al. 2012. PLoS One 7(7)), the free drug cell killing activities were investigated on PgP over-expressing MES-SA/MX2 cell line and the parental MES-SA cells. The cell killing activity of free drug (I), free drug (II) and a control free drug (MMAE, designated “III”) on the PgP-overexpressing MES-SA/MX2 cells were reduced by different levels compared to their activity on parental MES-SA cells. The MES-SA/MX2 cells were also treated with PgP inhibitor GF120918 (5 μM) to further investigate if the observed cell killing reduction is contributed by the presence of PgP on the cell surface.

[1] = test system: MES-SA/MX2 cells (PgP over-expressing); assay: Free drug cell killing on PgP over-expressing MES-SA/MX2 cells with or without PgP inhibitor GF120918; assay type: cell-based; conditions: for change in cell killing EC50 in the presence and absence of PgP inhibitor GF120918: GF120918 5 μM
Text: as §1

MC38-hFolRα tumors = assay: MC38-hFOLR1 tumor model, combination with Avelumab; assay type: in vivo; conditions: ADC Molecule 4 10 or 15 mg/kg once IV; Avelumab q3dx3 intraperitoneally
[2] = Body weight of rats given free drugs; assay type: in vivo, rat; conditions: free drug (I) 0.4 and 1 mg/kg; free drug (II) 0.4 mg/kg; IV bolus
Method: To assess the pharmacokinetic profile of free drug (I), female Sprague-Dawley rats (mean body weight 250 g) were given either a 0.4 mg/kg or 1 mg/kg dose by IV bolus administration (N=three animal per dose level) via an indwelling jugular vein catheter. Blood samples were collected at […], 1, 2, 8, 24, 32, 48, and 72 hour post-dose. Levels of free drug (I) and (II) were measured by LC-MS/MS and non-compartmental pharmacokinetic analysis was conducted using Phoenix WinNonlin Version 6.4 (Pharsight Corporation). The PK of free drug (I) could not be estimated due to the fact that concentrations of (I) increased from 2 to 8 hours and were undetectable thereafter.

P-glycoprotein (PgP) = assay: Free drug cell killing on PgP over-expressing MES-SA/MX2 cells with or without PgP inhibitor GF120918; assay type: cell-based; conditions: human, MES-SA/MX2 cells (PgP over-expressing)
Text: as §1

[3] = Pharmacokinetics of free drugs in Sprague-Dawley rats; assay type: in vivo, rat; conditions: for AUC(0-inf) / C0 / Cmax / clearance / AUC(0-t) / half-life / Vd: rat, blood, female Sprague-Dawley rats; for AUC(0-t): read-out: AUC0-last ± SE; for half-life: read-out: Terminal t1/2 (converted); for Vd: read-out: VSS
Method: Blood samples were collected at […], 1, 2, 8, 24, 32, 48, and 72 hour post-dose. Levels of free drug (I) and (II) were measured by LC-MS/MS and non-compartmental pharmacokinetic analysis was conducted using Phoenix WinNonlin Version 6.4 (Pharsight Corporation). The PK of free drug (I) could not be estimated due to the fact that concentrations of (I) increased from 2 to 8 hours and were undetectable thereafter.

cell line tested = assay: Free drug in vitro cytotoxicity, various cell lines; assay type: cell-based; conditions: for cytotoxic activity of released free drugs: in words
A549 cells = assay: In vitro cell killing (ADCs, free drugs), FolRα-negative A549 cells; assay type: cell-based; conditions: for Span: A549 cells, Table 26, NK = No Killing; for EC50: Homo sapiens, A549
Text: Cytotoxic activities of the two ADC molecules were compared in the presence of excess un-conjugated “naked” antibody as competitior, on cells that were positive FolRα expression (Igrov1 and OVCAR3) and on cells that were negative for FolRα expression (A549).

Igrov1 cells = assay: In vitro cell killing (ADCs, free drugs), Igrov1 cells; assay type: cell-based; conditions: for EC50: Homo sapiens, IGROV-1; for Span: Igrov1 cells, Table 26
Method: The candidate antibody-drug conjugates were tested in cell killing on FolRα-expressing cells, including KB, Igrov1, HeLa and JEG3.

[4] = test system: FOLR1-positive Igrov1 cells; assay: Secondary antibody cell killing assay, Igrov1 cells; assay type: cell-based; conditions: Table 9; for EC50: read-out: Igrov 2° Antibody Cell Killing, Nb-SC239 EC50
Text: FOLR1-positive KB cells were obtained from ATCC, and FOLR1-positive Igrov1 cells were obtained from NIH. The cells were maintained in Ham's F-12: high glucose DMEM (50:50) (Corning, Cellgro-Mediatech) supplemented with 10% heat-inactivated fetal bovine serum (Corning, Cellgro-Mediatech, Manassas, Va.), 1% Penicillin/Streptomycin (Corning, Cellgro-Mediatech, Manassas, Va.) and 2 mmol/L-glutamax (Thermo Fisher Scientific, Waltham, Mass.). Adherent cells were washed twice with calcium and magnesium-free Hanks Balanced Salt Solution (HBSS), harvested with HYQ® TASE™ (Hyclone; Thermo Fisher Scientific, Waltham, Mass.) and counted by the Vi-CELL Cell Viability Analyzers (Beckman Coulter, Indianapolis, Ind.). A total of 625 cells were seeded in each well of a 384-well flat bottom white polystyrene plate. Lead antibodies were formulated at 4-fold starting concentration in the cell culture medium and filtered through MultiScreenHTS 96-Well Filter Plates (Millipore; Billerica, Mass.). […] Assay plates were cultured at 37° C. in a CO2 incubator for 120 hrs before assay. For cell viability measurement, 30 μL of Cell Titer-Glo® reagent (Promega Corp. Madison, Wis.) was added into each well, and plates were processed as per product instructions. Relative luminescence was measured on an ENVISION® plate reader (Perkin-Elmer; Waltham, Mass.). Relative luminescence readings were converted to percent viability using untreated cells as controls. Data was fitted with non-linear regression analysis, using a log(inhibitor) vs. response-variable slope, 4 parameter fit with GraphPad Prism (GraphPad v 5.0, Software; San Diego, Calif.). Data was expressed as relative cell viability (ATP content) % vs. dose of antibody.

human FOLR1-HIS = target: T1, human FOLR1-HIS (Homo sapiens, UniProt P15328); assay: Biacore kinetics (surface plasmon resonance); assay type: binding; conditions: humanized 6D1 (2060) antibodies, Table 9
T1 construct: HIS
T1 sequence (P15328 25-234): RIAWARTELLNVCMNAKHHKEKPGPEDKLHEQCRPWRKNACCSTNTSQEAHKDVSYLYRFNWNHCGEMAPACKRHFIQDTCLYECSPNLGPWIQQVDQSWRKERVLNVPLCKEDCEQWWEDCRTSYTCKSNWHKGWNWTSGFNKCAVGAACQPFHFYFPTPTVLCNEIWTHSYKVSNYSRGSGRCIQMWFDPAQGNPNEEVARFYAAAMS
Method: Anti-Fc polyclonal antibodies were immobilized onto a CM5 chip (GE Life Sciences) using amine coupling chemistry (from Amine Coupling Kit, GE Life Sciences). The immobilization steps were carried out at a flow rate of 25 μL/min in 1×HBS-EP+ buffer (GE Life Sciences; 10× Stock diluted before use). The sensor surfaces were activated for 7 min with a mixture of N-hydroxysuccinimide (NHS, 0.05 M) and 1-ethyl-3-(3-dimethylaminopropyl)-carbodiimide (EDC, 0.2 M). The anti-Fc polyclonal antibodies were injected over all 4 flow cells at a concentration of […]/mL in 10 mM sodium acetate, pH 4.5, for 7 min. Ethanolamine (1 M, pH 8.5) was injected for 7 min to block any remaining activated groups. An average of 12,000 response units (RU) of capture antibody was immobilized on each flow cell.
Off-rate and kinetic binding experiments were performed at 25° C. using 1×HBS-EP+ buffer. Test and control antibodies were injected over the anti-Fc surface at concentrations of 5-10 μg/mL for 12 seconds at a flow rate of 10 μL/min on flow cells 2, 3 and 4, followed by a buffer wash for 30 seconds at the same flow rate. Kinetic characterization of antibody samples was carried out with a single concentration of antigen (for off-rate ranking) or a 1:2 dilution series of antigen (for kinetic characterization) and 1 injection of 0 nM antigen. […] Between each ligand capture and analyte binding cycle, regeneration was carried out using 2 injections of 10 mM glycine pH 2.0 for 30 seconds at 30 μL/min, followed by a 30 second buffer wash step.
The data were fit with the Biacore T200 Evaluation software, using a 1:1 Langmuir binding model. KD (affinity, nM) was determined as a ratio of the kinetic rate constants calculated from the fits of the association and dissociation phases.

[5] = MEA-SA/MX2 cells (PgP over-expressing), No GF120918
[6] = MEA-SA/MX2 cells, with PgP inhibitor GF120918 (5 μM)
[7] = with GF120918 (5 μM), MEA-SA/MX2 cells, with PgP inhibitor GF120918 (5 μM)

CC[C@H](C)[C@@H]([C@@H](CC(=O)N1CCC[C@H]1[C@H](OC)[C@@H](C)C(=O)N[C@H](C)[C@@H](O)c1ccccc1)OC)N(C)C(=O)[C@@H](NC(=O)[C@@H](NC)C(C)C)C(C)C [free drug (III), MMAE] (H-[NMeV]V[Dil][Dolaproine]-X1)
EC50 (MES-SA cells): 0.75 nM
Span (MES-SA cells): 100%
change in cell killing EC50 in the presence and absence of PgP inhibitor GF120918 [1]: 111 fold
EC50 [1, 5]: 111 nM
Span [1, 5]: 100%
EC50 [1, 6]: 1 nM
Span [1, 6]: 99%

Avelumab
initial tumor response (MC38-hFolRα tumors): tumor stasis until approximately day 7

COc1cc2cc(c1Cl)N(C)C(=O)C[C@H](OC(=O)[C@H](C)N(C)C(=O)CCC(C)(C)S)[C@]1(C)O[C@H]1[C@H](C)[C@@H]1C[C@@](O)(NC(=O)O1)[C@H](OC)/C=C/C=C(/C)C2 [free drug (II)]
EC50 (MES-SA cells; Homo sapiens, MES-SA): 1.9 nM
Span (MES-SA cells): 100%
body weight of the animals [2]: progressive body weight loss
EC50 (P-glycoprotein (PgP); [7]): 1.7 nM
EC50 (P-glycoprotein (PgP); [5]): 28 nM
change in cell killing EC50 in the presence and absence of PgP inhibitor GF120918 [1]: 17 fold
Span [1, 5]: 100%
Span [1, 6]: 98%
AUC(0-inf) ([3]; IV bolus, dose level 0.1 mg/kg): 129 ng·h/mL
C0 ([3]; IV bolus, dose level 0.1 mg/kg): 10.7 ng/mL
Cmax ([3]; IV bolus, dose level 0.1 mg/kg): 9.31 ± 2.19 ng/mL
clearance ([3]; IV bolus, dose level 0.1 mg/kg): 12.9 mL/min/kg
AUC(0-t) ([3]; IV bolus, dose level 0.1 mg/kg): 96.9 ± 11 ng·h/mL
half-life ([3]; IV bolus, dose level 0.1 mg/kg): 22.4 h
Vd ([3]; IV bolus, dose level 0.1 mg/kg): 15.8 L/kg
AUC(0-inf) ([3]; IV bolus, dose level 0.4 mg/kg): 242 ng·h/mL
C0 ([3]; IV bolus, dose level 0.4 mg/kg): 62.5 ng/mL
Cmax ([3]; IV bolus, dose level 0.4 mg/kg): 53.3 ± 19 ng/mL
clearance ([3]; IV bolus, dose level 0.4 mg/kg): 27.7 mL/min/kg
AUC(0-t) ([3]; IV bolus, dose level 0.4 mg/kg): 211 ± 70 ng·h/mL
half-life ([3]; IV bolus, dose level 0.4 mg/kg): 44.3 h
Vd ([3]; IV bolus, dose level 0.4 mg/kg): 44.1 L/kg
cytotoxic activity of released free drugs (cell line tested): comparable cytotoxic activity
Span (A549 cells): 81%
EC50 (A549 cells): 7.7 nM
EC50 (Igrov1 cells): 4.9 nM
Span (Igrov1 cells): 90%

CN[C@H](C(=O)N[C@H](C(=O)N(C)[C@H](/C=C(\C)C(=O)O)C(C)C)C(C)(C)C)C(C)(C)c1cccc(N)c1 [free drug (I)]
EC50 (MES-SA cells; Homo sapiens, MES-SA): 6 nM
Span (MES-SA cells): 100%
body weight of the animals [2]: did not have an effect on the body weight
EC50 (P-glycoprotein (PgP); [7]): 6.4 nM
EC50 (P-glycoprotein (PgP); [5]): 50 nM
change in cell killing EC50 in the presence and absence of PgP inhibitor GF120918 [1]: 8 fold
Span [1, 5]: 100%
Span [1, 6]: 99%
plasma level of free drug after dosing ([3]; 0.4 or 1 mg/kg IV bolus, data not shown): undetectable at 24 hours post dose
clearance relative to the other free drug ([3]; IV bolus): more rapid than that of free drug (II)
PK of free drug (I) in rat vs. free drug (II) ([3]; Table 28): Free drug (I) has faster clearance
C0 ([3]; IV bolus, dose level 0.1 mg/kg): 6.81 ng/mL
Cmax ([3]; IV bolus, dose level 0.1 mg/kg): 5.82 ± 0.69 ng/mL
AUC(0-t) ([3]; IV bolus, dose level 0.1 mg/kg): 11 ± 2.1 ng·h/mL
C0 ([3]; IV bolus, dose level 0.4 mg/kg): 15.5 ng/mL
Cmax ([3]; IV bolus, dose level 0.4 mg/kg): 12.8 ± 2.1 ng/mL
AUC(0-t) ([3]; IV bolus, dose level 0.4 mg/kg): 23.9 ± 2.6 ng·h/mL
EC50 (cell line tested; depending on the cell line tested, read-out: cytotoxic activity in vitro EC50): 0.5 to 20 nM
cytotoxic activity of released free drugs (cell line tested): comparable cytotoxic activity
Span (A549 cells): 81%
EC50 (A549 cells): 11 nM
EC50 (Igrov1 cells): 2.4 nM
Span (Igrov1 cells): 92%

B1: SRP2060-E10: affinity-matured humanized 6D1; VH SEQ ID NO 363; VL H6D1-LC4 SEQ ID NO 368 (antibody, V domains shown)
VH: EVQLLESGGGLVQPGGSLRLSCAFSGFSLSTFGMGVGWVRQAPGKGLEWVSHIWWDDDKYYHPALKGRFTISKDNSKNTVYLQMNSLRAEDTAVYYCGRNHFPHYYGSSHWYFNVWGQGTTVTVSS
VL: EIVMTQSPATLSLSPGERATLSCKASQDINSYLSWYQQKPGQAPRLLIYRANRLVDGIPARFSGSGSGTDYTLTISSLEPEDFAVYYCLQYDEFPYTFGGGTKVEIK
modifications: Synthetic SRP2060-E10, VH; Synthetic H6D1-LC4, VL
Igrov 2° Antibody Cell Killing, Nb-SC239 span [4]: 68%
EC50 [4]: 0.061 nM
Biacore kinetics ka (human FOLR1-HIS): 582000 M⁻¹ s⁻¹
Biacore kinetics kd (human FOLR1-HIS): 0.0012 s⁻¹

B2: SRP2060-E05: affinity-matured humanized 6D1; VH SEQ ID NO 364; VL H6D1-LC4 SEQ ID NO 368 (antibody, V domains shown)
VH: B1 VH with I71V
VL: B1 VL
modifications: Synthetic SRP2060-E05, VH; Synthetic H6D1-LC4, VL
Igrov 2° Antibody Cell Killing, Nb-SC239 span [4]: 71%
EC50 [4]: 0.22 nM
Biacore kinetics ka (human FOLR1-HIS): 541000 M⁻¹ s⁻¹
Biacore kinetics kd (human FOLR1-HIS): 0.00158 s⁻¹

B3: SRP2060-B01 (antibody, V domains shown)
VH: B1 VH with F24L, P43T, Y81H
VL: DIQMTQSPSTLSASVGDRVTITCKASQDINSYLSWYQQKPGKAPKLLIYRANRLVDGVPSRFSGSGSGTEFTLTISSLQPDDFATYYCLQYDEFPYTFGGGTKVEIK
Igrov 2° Antibody Cell Killing, Nb-SC239 span [4]: 76%
EC50 [4]: 0.045 nM
Biacore kinetics ka (human FOLR1-HIS): 561000 M⁻¹ s⁻¹
Biacore kinetics kd (human FOLR1-HIS): 0.00147 s⁻¹

B4: SRP2060-A06 (antibody, V domains shown)
VH: B1 VH with S51G, H62Y, N114D
VL: B3 VL
Igrov 2° Antibody Cell Killing, Nb-SC239 span [4]: 66%
EC50 [4]: 0.013 nM
Biacore kinetics ka (human FOLR1-HIS): 547000 M⁻¹ s⁻¹
Biacore kinetics kd (human FOLR1-HIS): 0.00729 s⁻¹
